“Also recorded” adds a separate entry of the source. Like-named read-outs stand apart in the source and are kept apart here. Ends that are not written are not given here.
How the values were obtained:
Xylella fastidiosa cells [1] = format: cell-based
Xf strain 9a5c = details: cited from earlier work
[2] = tested on: Xylella fastidiosa subsp. pauca isolate De Donno in Nicotiana tabacum (var. Xanthi); format: in vivo
Xf = details: 1 mg/mL; cited from earlier work
Xylella fastidiosa cells [3] = format: cell-based; remark: listed apart in the source
[4] = tested on: Xylella fastidiosa biofilm; format: cell-based; details: 50 μM, 20 days, 28 °C
[5] = tested on: Xylella fastidiosa subsp. pauca, strain De Donno; format: cell-based
E. coli = details: cited from earlier work
[6] = tested on: Xylella fastidiosa subsp. pauca, strain De Donno; format: cell-based; remark: listed apart in the source
S. aureus = details: cited from earlier work
Xylella fastidiosa cells [7] = format: cell-based; remark: listed apart in the source
[8] = tested on: Xanthomonas albilineans (Xa), strain CFBP2523; format: cell-based; set-up: key: +++: Clear plaque formation; ++: turbid plaque formation; +: highly turbid plaque formation; -: no plaque formation
[9] = tested on: Nicotiana tabacum cv. Xanthi leaves; details: in vivo
X. fastidiosa = details: cited from earlier work

Molecule	effect on Xf biofilm formation (comparison, words) [4]	antimicrobial activity on Xf growth in antibiogram [5]	MIC (μM) E. coli (E. coli) [µM]	reductive activity against Xf cells (OD600, words) [6]	MIC (μM) S. aureus (S. aureus) [µM]	morphological changes of Xf cells under TEM (Xylella fastidiosa cells [1])	lytic activity by fluorescence microscopy (live green / dead red) (Xylella fastidiosa cells [7])	growth inhibition of Xanthomonas albilineans (plaque formation) [8]	other results
CC(=O)N[C@@H](CS)C(=O)O [NAC, N-acetyl-L-cysteine]									morphological changes of Xf cells under TEM (Xylella fastidiosa cells [1]; 50 μM, 1 h, room temperature, Xf 10^8 CFU/mL): pore and protrusion formation and condensed cytoplasmic outflow from the outer membrane; effect on biofilm biomass of Xf strain 9a5c (Xf strain 9a5c): reducing the biofilm biomass; Xf disease symptoms in Xf-infected tobacco plants ([2]; 30 dpi, 100 μL of treatment at inoculation point): did not develop any symptoms; Xf disease symptoms in Xf-infected tobacco leaf ([2]; 45 dpi, positive control treatment): no symptoms; activity against Xf (Xf): biocidal
FFGKVLKLIRKIF-NH2 [FF13, DASamP1, synthetic antimicrobial peptide, …-NH2]	greater performance than KL29	particularly highly active	>100	greatest activity	3.1	cytoplasmic condensation, loss of interior appearance, and alteration of the outer membrane	moderate lytic activity	+++	reduction in Xf cell viability (v-qPCR) (Xylella fastidiosa cells [3]): twofold reduction in cell viability
FFHHIFRGIVHVGKTIHRLVTG [FG22, Piscidin 1, antimicrobial peptide, source fish]			12.5		3.1			+++ and -	
GFKDLLKGAAKALVKTVLF-NH2 [GF19, Ascaphin-8]	interfered with biofilm formation in the same manner as NAC; also recorded: greater performance than KL29	particularly highly active; also recorded: distinct inhibitory activity	12.5	greatest activity	3.1	damaged and fragmented cell walls, with complete destruction of the outer and inner bacterial membranes	highest lytic activities	+++	reduction in viability of Xf compared to untreated cells (v-qPCR) (Xylella fastidiosa cells [3]): more-than-fourfold reduction in viability; diameter of halo-shaped tissue dissolving in tobacco leaves [9]: 7 mm; hypersensitive reaction in tobacco leaves [9]: light hypersensitive reaction
GLLGLLGSVVSHVVPAIVGHF-NH2 [GF21, Maculatin 1.3, antimicrobial peptide, source frog]			>100		6.2			+++ and -	
IKWKKLLRAAKRIL-NH2 [IL14, DASamP2, synthetic antimicrobial peptide, […]-NH2]	greater performance than KL29	particularly highly active	3.1	greatest activity	6.2	cytoplasmic condensation, loss of interior appearance, and alteration of the outer membrane	moderate lytic activity	+++	reduction in Xf cell viability (v-qPCR) (Xylella fastidiosa cells [3]): twofold reduction in cell viability
Lycotoxin I [IL25]			25		3.1			+++ and -	
RIVWVRIRRWFV-NH2 [RV12, RIJK2, synthetic antimicrobial peptide, …-NH2]								+++ and +	MIC (μM) X. fastidiosa (X. fastidiosa): 12.5 µM
VQFRIRVRIVIRK-NH2 [VK13, 1036, synthetic antimicrobial peptide, […]-NH2]								+++ and +	MIC (μM) X. fastidiosa (X. fastidiosa): 12.5 µM
